Measurements: ChEMBL document CHEMBL1201862, “PubChem BioAssay data set” (2004)
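48-hour exposure; five concentrations; linearly interpolated endpoints. GI50 marks 50% less growth.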 Calls of active or inactive are those of the source. No stated cut-off is given here; in the data, active = GI50 up to about 1.1 µM and inactive = higher. Peptide text beside a SMILES is read from it.

Legend:
Test in all cases: NCI tumour cell line growth inhibition, 48 h
RPMI-8226 = tested on: RPMI-8226
HT-29 = tested on: HT-29
OVCAR-5 = tested on: OVCAR-5
MDA-MB-231 = tested on: MDA-MB-231
MCF7 = tested on: MCF7
SK-MEL-5 = tested on: SK-MEL-5
MDA-MB-435 = tested on: MDA-MB-435
RXF 393 = tested on: RXF 393
786-0 = tested on: 786-0
A549 = tested on: A549
SW-620 = tested on: SW-620
SF-268 = tested on: SF-268
NCI-H226 = tested on: NCI-H226
SF-295 = tested on: SF-295
CAKI-1 = tested on: CAKI-1
NCI-H23 = tested on: NCI-H23
SN12C = tested on: SN12C
HCT-116 = tested on: HCT-116
SK-OV-3 = tested on: SK-OV-3
UO-31 = tested on: UO-31

Measured: GI50

CC1(C)CC(=O)C2=C(C1)NC1=C(C2)C(=O)CC(C)(C)C1
inactive: RPMI-8226 > 100 µM | HT-29 > 100 µM | OVCAR-5 > 100 µM | MDA-MB-231 > 100 µM | MCF7 > 100 µM | SK-MEL-5 > 100 µM | MDA-MB-435 > 100 µM | RXF 393 > 100 µM | 786-0 > 100 µM | A549 > 100 µM | SW-620 > 100 µM | SF-268 > 100 µM | NCI-H226 > 100 µM | SF-295 > 100 µM | CAKI-1 > 100 µM | NCI-H23 > 100 µM | SN12C > 100 µM | HCT-116 > 100 µM | SK-OV-3 > 100 µM | UO-31 > 100 µM

COC(=O)[C@H](Cc1ccccc1)NC(=O)c1ccc(CNC(=O)/C=C/c2ccc(-c3ccccc3)cc2)cc1
inactive: RPMI-8226 > 100 µM | HT-29 3.71 µM | OVCAR-5 59.4 µM | MDA-MB-231 22.1 µM | MCF7 > 100 µM | SK-MEL-5 > 100 µM | MDA-MB-435 > 100 µM | RXF 393 11.1 µM | 786-0 3.56 µM | A549 > 100 µM | SW-620 > 100 µM | SF-268 15.2 µM | NCI-H226 > 100 µM | SF-295 19.7 µM | CAKI-1 65 µM | NCI-H23 27.8 µM | SN12C > 100 µM | HCT-116 4.95 µM | SK-OV-3 57.8 µM | UO-31 > 100 µM

CC(C)CC(NC(=O)C(CC(C)C)NC(=O)C(Cc1c[nH]cn1)NC(=O)C(C)NC(=O)C(NC(=O)C(C)NC(=O)C(Cc1c[nH]c2ccccc12)NC(=O)C(CCC(=O)O)NC(=O)C(N)Cc1ccccc1)C(C)C)C(N)=O (stereo not given) (H-FEWAVAHLL-NH2; configuration not given here)
inactive: RPMI-8226 > 12.5 µM | HT-29 > 12.5 µM | OVCAR-5 > 12.5 µM | MDA-MB-231 > 12.5 µM | MCF7 > 12.5 µM | SK-MEL-5 > 12.5 µM | MDA-MB-435 > 12.5 µM | RXF 393 > 12.5 µM | 786-0 > 12.5 µM | A549 > 12.5 µM | SW-620 > 12.5 µM | SF-268 > 12.5 µM | NCI-H226 > 12.5 µM | SF-295 > 12.5 µM | CAKI-1 > 12.5 µM | NCI-H23 > 12.5 µM | SN12C > 12.5 µM | HCT-116 > 12.5 µM | SK-OV-3 > 12.5 µM | UO-31 > 12.5 µM
